Assay [1] concerns non-synovial control cancer cell lines (RD, HCT116, Calu6). In words: Growth of non-synovial control cancer cell lines, 14-day crystal violet staining. In kind it is cell-based. To be noted: treated daily, day 14, FIG. 9. As for the experimental part: (§1) Procedure: Cells were seeded into 6-well or 12-well plates and were treated daily with a BRD9 degrader (Compound 1), a bromo-domain BRD9 binder (Compound 2), E3 ligase binder (lenalidomide), DMSO, or staurosporin (positive control for cell killing), at indicated concentrations. The number of cells was optimized for each cell line. Growth media was refreshed every 5 days. By day 14, medium was removed, cells were washed with PBS, and stained using 500 μL of 0.005% (w/v) crystal violet solution in 25% (v/v) methanol for at least 1 hour at room temperature. Subsequently plates were scanned on an Odyssey CLx Imaging system.

In assay [2] the test system is synovial sarcoma cell lines (SYO1, HS-SY-II, ASKA). Put plainly: Growth of synovial sarcoma cell lines, 14-day crystal violet staining. The class given is cell-based. The conditions noted are these: for inhibition of cell growth: SYO1, HS-SY-II, ASKA, treated daily, day 14, FIG. 8. As to the method:
as §1

The subject of a further assay is SYO1 cells. In words: Cell cycle analysis (Click-iT Plus EdU Flow Cytometry Assay). In kind it is cell-based. The conditions noted are these: SYO1, 200 nM or 1 μM, 8 or 13 days, compared to DMSO and lenalidomide. As to the method: Procedure: SYO1 cells were treated for 8 or 13 days with DMSO, a BRD9 degrader (Compound 1) at 200 nM or 1 μM, or an E3 ligase binder (lenalidomide) at 200 nM. Compounds were refreshed every 5 days. Cell cycle analysis was performed using the Click-iT™ Plus EdU Flow Cytometry Assay (Invitrogen). The apoptosis assay was performed using the Annexin V-FITC Apoptosis Detection Kit (Sigma A9210). Assays were performed according to the manufacturer's protocol.
In general terms: In flow cytometry, cells or beads pass a laser one at a time.

The subject of assay [3] is non-synovial control cancer cell lines (293T, A549, G401). Put plainly: Growth of non-synovial control cancer cell lines (crystal violet, colony imaging). The class given is cell-based. The conditions noted are these: FIGS. 5, 6, 7. As to the method: (§2) Cells were seeded into 12-well plates and treated with DMSO, 1 μM BRD9 inhibitor, Compound 2 (also known as BI-7273, see Martin et al, J Med Chem. 59(10):4462-4475 (2016); see structure of Compound 2 below), or 1 μM BRD9 degrader, Compound 1.
(§3) The number of cells was optimized for each cell line. Growth medium and compounds were refreshed every 3-5 days. SYO1, Yamato, A549, 293T and HS-SY-II cells were fixed and stained at day 11. ASKA cells were fixed and stained at day 23. Staining was done by incubation with crystal violet solution (0.5 g Crystal Violet, 27 ml 37% Formaldehyde, 100 mL 10×PBS, 10 mL Methanol, 863 dH20 to 1 L) for 30 min followed by 3× washes with water and drying the plates for at least 24 h at room temperature. Subsequently plates were scanned on an Odyssey CLx Imaging system (FIG. 6).
(§4) Cells were seeded into 96-well ultra low cluster plate (Costar, #7007) in 200 μL complete media and treated at day 2 with DMSO, Staurosporin, or BRD9 degarder, Compound 1, at indicated doses (FIG. 7). Media and compounds were changed every 5 d and cell colonies were imaged at day 14.

In assay [4] the test system is synovial sarcoma cell lines (SYO1, Yamato, HS-SY-II, ASKA). Put plainly: Growth of synovial sarcoma cell lines (IncuCyte confluency, crystal violet, colony imaging). In kind it is cell-based. The conditions noted are these: 1 μM or indicated concentrations, FIGS. 5, 6, 7. As for the experimental part:
Cells were treated with DMSO or the BRD9 degrader, Compound 1, at indicated concentrations, and proliferation was monitored from day 7 to day 14 by measuring confluency overtime using an IncuCyte live cell analysis system (FIG. 5). Growth medium and compounds were refreshed every 3-4 days.
as §2, §3, §4

In assay [5] the target is 3×FLAG-NLuc-BRD9 (Nano luciferase-BRD9 fusion protein) in SYO-1 cells (Homo sapiens (Human), UniProt Q9H8M2). Put plainly: SYO1 BRD9 NanoLuc degradation assay. In kind it is cell-based. To be noted: SYO-1 cells expressing 3×FLAG-NLuc-BRD9, 6 hours incubation, read-out: SYO1 BRD9-NanoLuc degradation IC50. As for the experimental part:
Procedure: A stable SYO-1 cell line expressing 3×FLAG-NLuc-BRD9 was generated. On day 0 cells were seeded in 30 μL media into each well of 384-well cell culture plates. The seeding density was 8000 cells/well. On day 1, cells were treated with 30 nL DMSO or 30 nL of 3-fold serially DMSO-diluted compounds (10 points in duplicates with 1 μM as final top dose). Subsequently plates were incubated for 6 hours in a standard tissue culture incubator and equilibrated at room temperature for 15 minutes. Nanoluciferase activity was measured by adding 15 μL of freshly prepared Nano-Glo Luciferase Assay Reagent (Promega N1130), shaking the plates for 10 minutes and reading the bioluminescence using an EnVision reader.
Results: The Inhibition % was calculated using the following formula: % Inhibition=100×(LuMHC−Lumsample)/(LumHC−LumLC). DMSO treated cells are employed as High Control (HC) and 1 μM of a known BRD9 degrader standard treated cells are employed as Low Control (LC).

The target of assay [6] is BRD9 bromodomain (Flag-BRD9 P133-K239) (Homo sapiens (Human), UniProt Q9H8M2). Put plainly: BRD9 bromodomain TR-FRET competition binding assay. The conditions noted are these: Table 4; 3 nM Flag-BRD9, 3.75 nM biotinylated ligand, 90 minutes at room temperature. As to the method: Procedure: His-Flag-BRD9 (P133-K239; Swiss Prot Q9H8M2; SEQ ID NO:1 mgsshhhhhhenlyfq/gdykddddkgslevlfqg/[…] […]) was cloned, expressed, purified, and then treated with TEV protease. Cleaved His tag was removed by purification. The binding of a biotinylated small molecule ligand of BRD9 was assessed via the LANCE® TR-FRET platform (PerkinElmer), and the compounds were assayed for inhibitory activity against this interaction.
Sequence of BRD9 bromodomain (Flag-BRD9 P133-K239) (Q9H8M2 133-239): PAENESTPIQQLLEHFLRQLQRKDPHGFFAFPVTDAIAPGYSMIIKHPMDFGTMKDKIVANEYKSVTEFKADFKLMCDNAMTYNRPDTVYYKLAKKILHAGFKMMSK
A mixture of biotinylated-ligand and SureLight™ Allophycocyanin-Streptavidin (APC-SA, PerkinElmer AD0201) in 50 mM HEPES (pH 7.4), 50 mM NaCl, 1 mM TCEP (pH 7), 0.01% (v/v) Tween-20, 0.01% (w/v) bovine serum albumin was added to a white 384-well PerkinElmer Proxiplate Plus plate. DMSO or 3-fold serially diluted compounds were then added to the Proxiplate followed by addition of Flag-BRD9. After a 10-minute incubation at room temperature, Eu-W1024 anti-FLAG (PerkinElmer, AD0273) was added. The final reaction mixture that contained 3.75 nM biotinylated ligand, 3 nM Flag-BRD9, 7.5 nM SureLight™ Allophycocyanin-Streptavidin, and 0.2 nM Eu-W1024 anti-FLAG was incubated at room temperature for 90 minutes.
Results: The plates were then read on a PerkinElmer Envision plate reader to determine the ratio of emission at 665 nm over 615 nm. […]
(In general: Time-resolved FRET reads energy transfer from a long-lived donor to a nearby acceptor.)

These results are taken from US11560381B1, “Compounds and uses thereof” (Foghorn Therapeutics Inc., priority 2019, dated 2023).

What is called IC50 is the midpoint of a concentration-inhibition curve. Lower therefore signals inhibition by little substance.

Read-outs that look alike come from different tables or passages of the source.

Sequence of 3×FLAG-NLuc-BRD9 (Nano luciferase-BRD9 fusion protein) in SYO-1 cells (Q9H8M2 whole entry, the tested form may be a part): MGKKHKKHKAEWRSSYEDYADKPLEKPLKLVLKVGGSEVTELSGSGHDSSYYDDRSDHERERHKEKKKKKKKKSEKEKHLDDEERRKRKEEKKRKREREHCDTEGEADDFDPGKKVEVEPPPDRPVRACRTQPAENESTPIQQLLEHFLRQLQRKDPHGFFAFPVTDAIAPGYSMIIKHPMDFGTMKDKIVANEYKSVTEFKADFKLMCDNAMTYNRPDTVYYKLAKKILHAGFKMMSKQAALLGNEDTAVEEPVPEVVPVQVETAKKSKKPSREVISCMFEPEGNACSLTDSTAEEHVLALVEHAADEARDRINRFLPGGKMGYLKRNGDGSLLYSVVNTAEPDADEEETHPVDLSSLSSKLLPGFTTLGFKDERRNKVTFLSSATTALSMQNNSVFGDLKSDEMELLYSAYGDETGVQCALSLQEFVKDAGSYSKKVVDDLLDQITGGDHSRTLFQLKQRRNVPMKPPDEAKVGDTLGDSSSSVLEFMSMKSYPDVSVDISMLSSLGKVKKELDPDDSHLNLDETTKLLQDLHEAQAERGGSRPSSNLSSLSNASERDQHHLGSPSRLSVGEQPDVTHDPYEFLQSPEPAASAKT

As to `COc1cc(-c2cn(C)c(=O)c3cnccc23)cc(OC)c1CN(C)CC(=O)NCCOCCOCCNc1cccc2c1C(=O)N(C1CCC(=O)NC1=O)C2=O` (stereo not drawn) [Compound 1], the “inhibition of cell growth” value in assay [1] is on record as “did not result in inhibition of the growth”; in assay [2], “inhibition of the growth of the cells”; in assay [3] it was “does not result in inhibition of the growth”; in assay [4], “inhibition of the growth of the cells”. Also, the “growth inhibition compared among tested agents” value in assay [2] (all synovial cell lines, versus Compound 2 and lenalidomide) is on record as “most significant growth inhibition in all synovial cell lines”. The “numbers of cells in the S-phase of the cell cycle” value with SYO1 cells is “reduced numbers of cells in the S-phase of the cell cycle”.
Turning to `COc1cc(-c2cn(C)c(=O)c3cnccc23)cc(OC)c1CN(C)C` [Compound 2], the “inhibition of cell growth” value is “did not result in inhibition of the growth” in assay [1], “inhibition of the growth of the cells” in assay [2], “does not result in inhibition of the growth” in assay [3] and “inhibition of the growth of the cells” in assay [4].
`COc1cc(-c2cn(C)c(=O)c3cnccc23)cc(OC)c1CN1CC2(CCN(C(=O)CCOCCOc3cccc4c3C(=O)N(C3CCC(=O)NC3=O)C4=O)C2)C1` (stereo not drawn) [Compound D90]: in assay [5] (Table 5A), the DC50 fell in the range of 10 to 100 nM. The IC50 in assay [6] was less than 10 nM.
For `COc1cc(-c2cn(C)c(=O)c3cnccc23)cc(OC)c1CN1CCC(COC2CCN(C(=O)CCOCCOc3cccc4c3C(=O)N(C3CCC(=O)NC3=O)C4=O)C2)CC1` (stereo not drawn) [Compound D94], in that order: 10 to 100 nM and 10 to 100 nM.
Take `COc1cc(-c2cn(C)c(=O)c3cnccc23)cc(OC)c1CN1CCC2(CC1)CCN(C(=O)CCC#Cc1ccc3c(c1)C(=O)N(C1CCC(=O)NC1=O)C3=O)C2` (stereo not drawn) [Compound D220]: the DC50 in assay [5] (Table 5B) is less than 10 nM.
As for `COc1cc(-c2cn(C)c(=O)c3cnccc23)cc(OC)c1CN(C)CCCCNC1CC2(CCN(c3ccc4c(c3)C(=O)N(C3CNC(=O)CC3=O)C4=O)CC2)C1` (stereo not drawn) [Compound D247], in assay [5] (Table 5B), the DC50 is less than 10 nM.
Regarding `COc1cc(-c2cn(C)c(=O)c3cnccc23)cc(OC)c1CN(C)CCCCN1CC2(CCN(c3ccc4c(c3)C(=O)N(C3CCC(=O)NC3=O)C4=O)C2)C1` (stereo not drawn) [Compound D248], the DC50 in assay [5] (Table 5B) is 10 to 100 nM.
As for `COc1cc(-c2cn(C)c(=O)c3cnccc23)cc(OC)c1CN1CC(n2cc(COCc3ccc4c(c3)C(=O)N(C3CCC(=O)NC3=O)C4=O)nn2)C1` (stereo not drawn) [Compound D298], the DC50 in assay [5] (Table 5B) is less than 10 nM.
In the case of `COc1cc(-c2cn(C)c(=O)c3[nH]ccc23)cc(OC)c1CN1CCC2(CC1)CN(c1ccc3c(c1)C(=O)N(C1CCC(=O)NC1=O)C3)C2` (stereo not drawn) [Compound D419], in assay [5] (Table 5C), the DC50 was less than 10 nM.
For `COc1cc(-c2cn(C)c(=O)c3c[nH]nc23)cc(OC)c1CN1CCC2(CC1)CN(c1ccc3c(c1)C(=O)N(C1CCC(=O)NC1=O)C3)C2` (stereo not drawn) [Compound D420], the DC50 in assay [5] (Table 5C) was less than 10 nM.
On to `COc1cc(-c2cc(C(F)F)c(=O)n(C)c2)cc(OC)c1CN1CC(C#Cc2ccc3c(c2)C(=O)N(C2CCC(=O)NC2=O)C3)C1` (stereo not drawn) [Compound D439], for which the DC50 in assay [5] (Table 5C) was less than 10 nM.
The same measure, in the same setting: the same measure for `COc1cc(-c2cc(C)c(=O)n(C)c2)cc(OC)c1CN1CC(C)(C#Cc2ccc3c(c2)C(=O)N(C2CCC(=O)NC2=O)C3)C1` (stereo not drawn) [Compound D450]: less than 10 nM; for `COc1cc(-c2cc(C)c(=O)n(C)c2)cc(OC)c1CN1CC(C#Cc2ccc3c(c2)C(=O)N(C2CCC(=O)NC2=O)C3)C1C` (stereo not drawn) [Compound D453]: less than 10 nM; for `C/C=C/Cn1cc(-c2ccc(CN3CCN(S(=O)(=O)c4ccc5c(c4)C(=O)N(C4CCC(=O)NC4=O)C5)CC3)c(Cl)c2)n2cncc2c1=O` (stereo not drawn) [Compound D464]: not below 1000 nM.
